Series [1] has as its system A549 (human non-small-cell lung cancer). The series is described as follows: MTT cytotoxicity assay, A549. In kind it is cell-based. The settings on record: Homo sapiens, A549, 72 h treatment, read-out: Half Maximal Inhibitory Concentration (IC50) A549. The protocol:
(§1) The cytotoxicity of hederagenin derivatives in vitro was evaluated on three tumor cell lines (A549: human non-small-cell lung cancer; MCF-7: human mammary cancer; HepG2: human hepatocellular carcinoma) using the 3-(4,5-dimethylthiazol-2-yl)-2,5-diphenyltetrazolium bromide (MTT) assay. In addition, their toxicity evaluations were tested on H9c2 (murine heart myoblast) and MDCK (Madin–Darby canine kidney) cells. MCF-7, A549, HepG2, H9c2, and MDCK cells were obtained from the Chinese Academy of Medical Sciences and Peking Union Medical College. All of the cell lines were maintained in Dulbecco’s modified Eagle medium (DMEM) supplemented with 1% (v/v) penicillin/streptomycin and 10% (v/v) fetal bovine serum (FBS; Thermo Technologies, New York, NY, USA) under a humidified atmosphere containing 5% CO2 at 37 °C. The stock solutions of He derivatives were dissolved in dimethyl sulfoxide (DMSO; Sigma, St. Louis, MO, USA) and added at various concentrations to the cell culture. Cellular morphologies were observed using an inverted fluorescence microscope (Olympus IX71, Tokyo, Japan), a plate reader (BIORAD 550 spectrophotometer, Bio-rad Life Science Development Ltd., Beijing, China), and a Canton 2 flow cytometer (BD, New York, NY, USA). The antitumor activity of these compounds were evaluated on MCF-7, A549, HepG2, MDCK, and H9c2 cell lines using the MTT assay. Cells at a density of 3 × 10^3 cells/well were plated in a 96-multiwell plate in DMEM containing 10% FBS for 24 h at 37 °C with 5% CO2. Then, cells were treated for 72 h with the required concentrations (3.125, 6.25, 12.5, 25, or 50 μM) of the compounds and reference drugs (He and DDP) dissolved with the vehicle DMSO. After that, the culture substrate was replaced with 200 μL of DMEM containing 20 μL of MTT solution at 5 mg/mL and incubated for 4 h. The supernatant was removed and the dissolved formazans precipitated with 120 μL of DMSO. Wells without drugs were used as blanks. A plate reader was used to determine the absorbance at 490 nm. The above steps were repeated three times. The IC50 values were defined as the concentration of the compound which gave 50% growth inhibition, and they were calculated using Graph Pad Prism 5. The inhibition rate was calculated using the following formula, where OD is the optical density:% inhibition = 1 − (Sample group OD/Control group OD) × 100%. (1)
Background: Tetrazolium dyes change colour on reduction, which living cells bring about.

For series [2], the system named is MCF-7 (human mammary cancer). The experiment in a line: MTT cytotoxicity assay, MCF-7. In kind it is cell-based. The settings on record: Homo sapiens, MCF7, 72 h treatment, read-out: Half Maximal Inhibitory Concentration (IC50) MCF-7. The protocol:
as §1

For series [3], the system named is HepG2 (human hepatocellular carcinoma). The series is described as follows: MTT cytotoxicity assay, HepG2. Type of series: cell-based. Particulars: Homo sapiens, HepG2; MTT, 72 h treatment; read-out: Half Maximal Inhibitory Concentration (IC50) HepG2. As to the method:
as §1

In series [4] the test system is MDCK (Madin–Darby canine kidney) cells. The experiment in a line: MTT toxicity evaluation, MDCK. Type of series: cell-based. The settings on record: Canis lupus familiaris, MDCK, 72 h treatment, non-tumor cells, read-out: Half Maximal Inhibitory Concentration (IC50) MDCK. The protocol:
as §1

Series [5] has as its system H9c2 (murine heart myoblast). The series is described as follows: MTT toxicity evaluation, H9c2. In kind it is cell-based. The settings on record: H9c2, 72 h treatment, non-tumor cells, read-out: Half Maximal Inhibitory Concentration (IC50) H9c2. As to the method: as §1

Each structure is given as a SMILES string.

Drawing on article PMC6213900, “Design, Synthesis, and Cytotoxic Analysis of Novel Hederagenin–Pyrazine Derivatives Based on Partial Least Squares Discriminant Analysis” (International Journal of Molecular Sciences, 2018), this text covers IC50 and melting point for ten compounds.

As a reminder, the melting point is the temperature of the solid-liquid transition. Consider `Cc1cnc(C(=O)OCCCCOC(=O)[C@]23CCC(C)(C)CC2C2=CCC4[C@@]5(C)CC[C@H](O)[C@@](C)(CO)C5CC[C@@]4(C)[C@]2(C)CC3)cn1` (stereo partly drawn) [Compound 16, 4-(((4aS,6aS,6bR,9R,10S,12aR)-10-Hydroxy-9-(hydroxymethyl)-2,2,6a,6b,9,12a-hexamethyl-1,2,3,4,4a,5,6,6a,6b,7,8,8a,9,10,11,12,12a,12b,13,14b-icosahydropicene-4a-carbonyl)oxy)butyl-5-methylpyrazine-2-carboxylate], for which the melting point turned out to be 166.1 °C. For the same compound, the IC50 in series [1] amounted to 24.8 ± 0.66 µM. Moreover, the IC50 in series [2] was determined as 28.49 ± 0.28 µM. The IC50 in series [3] stood at 6.99 ± 0.63 µM. Further, the IC50 in series [4] came to 20.12 ± 0.06 µM. Further, the IC50 in series [5] was 14.99 ± 0.12 µM.

In turn, `Cc1nccnc1C(=O)OCCCCOC(=O)[C@]12CCC(C)(C)CC1C1=CCC3[C@@]4(C)CC[C@H](O)[C@@](C)(CO)C4CC[C@@]3(C)[C@]1(C)CC2` (stereo partly drawn) [Compound 17, 4-(((4aS,6aS,6bR,9R,10S,12aR)-10-Hydroxy-9-(hydroxymethyl)-2,2,6a,6b,9,12a-hexamethyl-1,2,3,4,4a,5,6,6a,6b,7,8,8a,9,10,11,12,12a,12b,13,14b-icosahydropicene-4a-carbonyl)oxy)butyl-3-methylpyrazine-2-carboxylate] returned a melting point of 145.2 °C. The IC50 in series [1] was 19.6 ± 0.22 µM. Besides, the IC50 in series [2] came to 22.9 ± 0.66 µM. Also, the IC50 in series [3] came to 8.15 ± 0.22 µM. The IC50 in series [4] stood at 20.9 ± 3.03 µM. In addition, the IC50 in series [5] stood at 22.3 ± 0.3 µM.

Take `Cc1ncc(C(=O)OCCCCOC(=O)[C@]23CCC(C)(C)CC2C2=CCC4[C@@]5(C)CC[C@H](O)[C@@](C)(CO)C5CC[C@@]4(C)[C@]2(C)CC3)nc1C` (stereo partly drawn) [Compound 18, 4-(((4aS,6aS,6bR,9R,10S,12aR)-10-Hydroxy-9-(hydroxymethyl)-2,2,6a,6b,9,12a-hexamethyl-1,2,3,4,4a,5,6,6a,6b,7,8,8a,9,10,11,12,12a,12b,13,14b-icosahydropicene-4a-carbonyl)oxy)butyl-5,6-dimethylpyrazine-2-carboxylate]: the melting point was 134.7 °C. Besides, the IC50 in series [1] was 16.17 ± 0.15 µM. In addition, the IC50 in series [2] is 28.3 ± 0.41 µM. In addition, in series [3], the IC50 was determined as 11.9 ± 0.99 µM. In addition, the IC50 in series [4] is 16.6 ± 0.22 µM. In addition, in series [5], the IC50 was greater than 30 µM.

Turning to `Cc1nc(C)c(C(=O)OCCCCOC(=O)[C@]23CCC(C)(C)CC2C2=CCC4[C@@]5(C)CC[C@H](O)[C@@](C)(CO)C5CC[C@@]4(C)[C@]2(C)CC3)nc1C` (stereo partly drawn) [Compound 19, 4-(((4aS,6aS,6bR,9R,10S,12aR)-10-Hydroxy-9-(hydroxymethyl)-2,2,6a,6b,9,12a-hexamethyl-1,2,3,4,4a,5,6,6a,6b,7,8,8a,9,10,11,12,12a,12b,13,14b-icosahydropicene-4a-carbonyl)oxy)butyl-3,5,6-trimethylpyrazine-2-carboxylate], the melting point turned out to be 110.1 °C. For the same compound, in series [1], the IC50 was 12.2 ± 0.4 µM. Further, the IC50 in series [2] amounted to 27.6 ± 0.52 µM. Also, the IC50 in series [3] was determined as 9.06 ± 0.32 µM. Also, the IC50 in series [4] stood at 16.43 ± 0.04 µM. Moreover, in series [5], the IC50 is 16.5 ± 0.22 µM.

Compound `CC1(C)CC[C@]2(C(=O)OCCCCCl)CC[C@]3(C)C(=CCC4[C@@]5(C)CC[C@H](O)[C@@](C)(COC(=O)c6cnccn6)C5CC[C@]43C)C2C1` (stereo partly drawn) [Compound 21, ((3S,4R,6aR,6bS,8aS,14bR)-8a-((4-Chlorobutoxy)carbonyl)-3-hydroxy-4,6a,6b,11,11,14b-hexamethyl-1,2,3,4,4a,5,6,6a,6b,7,8,8a,9,10,11,12,12a,14,14a,14b-icosahydropicen-4-yl)methyl-pyrazine-2-carboxylate] came in with a melting point of 117.1 °C. Further, the IC50 in series [1] was 9.29 ± 0.99 µM. The IC50 in series [2] was 24.98 ± 0.18 µM. Moreover, the IC50 in series [3] was determined as 7.99 ± 0.12 µM. Besides, the IC50 in series [4] turned out to be 14.85 ± 0.06 µM. In addition, the IC50 in series [5] worked out at 16.68 ± 0.1 µM.

With `Cc1cncc(C(=O)OC[C@@]2(C)C3CC[C@]4(C)C(CC=C5C6CC(C)(C)CC[C@]6(C(=O)OCCCCCl)CC[C@]54C)[C@@]3(C)CC[C@@H]2O)n1` (stereo partly drawn) [Compound 22, ((3S,4R,6aR,6bS,8aS,14bR)-8a-((4-Chlorobutoxy)carbonyl)-3-hydroxy-4,6a,6b,11,11,14b-hexamethyl-1,2,3,4,4a,5,6,6a,6b,7,8,8a,9,10,11,12,12a,14,14a,14b-icosahydropicen-4-yl)methyl 6-methylpyrazine-2-carboxylate], the melting point worked out at 126.9 °C. For the same compound, in series [1], the IC50 is 10.4 ± 0.43 µM. Besides, the IC50 in series [2] is 20.5 ± 3.63 µM. In addition, the IC50 in series [3] turned out to be 7.15 ± 0.43 µM. In addition, the IC50 in series [4] stood at 16.3 ± 1.57 µM. Moreover, the IC50 in series [5] came to 16.26 ± 0.07 µM.

The compound `Cc1cnc(C(=O)OC[C@@]2(C)C3CC[C@]4(C)C(CC=C5C6CC(C)(C)CC[C@]6(C(=O)OCCCCCl)CC[C@]54C)[C@@]3(C)CC[C@@H]2O)cn1` (stereo partly drawn) [Compound 23, ((3S,4R,6aR,6bS,8aS,14bR)-8a-((4-Chlorobutoxy)carbonyl)-3-hydroxy-4,6a,6b,11,11,14b-hexamethyl-1,2,3,4,4a,5,6,6a,6b,7,8,8a,9,10,11,12,12a,14,14a,14b-icosahydropicen-4-yl)methyl 5-methylpyrazine-2-carboxylate] gave a melting point of 175.8 °C. In addition, in series [1], the IC50 came to 18.7 ± 0.32 µM. Besides, in series [2], the IC50 is 21.3 ± 1.28 µM. Besides, the IC50 in series [3] was 7.17 ± 1.09 µM. Also, the IC50 in series [4] came to 19.5 ± 2.47 µM. For the same compound, the IC50 in series [5] came out at 23.4 ± 0.55 µM.

As to `Cc1nccnc1C(=O)OC[C@@]1(C)C2CC[C@]3(C)C(CC=C4C5CC(C)(C)CC[C@]5(C(=O)OCCCCCl)CC[C@]43C)[C@@]2(C)CC[C@@H]1O` (stereo partly drawn) [Compound 24, ((3S,4R,6aR,6bS,8aS,14bR)-8a-((4-Chlorobutoxy)carbonyl)-3-hydroxy-4,6a,6b,11,11,14b-hexamethyl-1,2,3,4,4a,5,6,6a,6b,7,8,8a,9,10,11,12,12a,14,14a,14b-icosahydropicen-4-yl)methyl 3-methylpyrazine-2-carboxylate], the melting point turned out to be 106.1 °C. The IC50 in series [1] worked out at 22 ± 0.87 µM. The IC50 in series [2] worked out at 17.9 ± 2.8 µM. The IC50 in series [3] is 6.89 ± 0.21 µM. The IC50 in series [4] was 19.3 ± 1.47 µM. The IC50 in series [5] was found to be 27.9 ± 0.62 µM.

`Cc1ncc(C(=O)OC[C@@]2(C)C3CC[C@]4(C)C(CC=C5C6CC(C)(C)CC[C@]6(C(=O)OCCCCCl)CC[C@]54C)[C@@]3(C)CC[C@@H]2O)nc1C` (stereo partly drawn) [Compound 25, ((3S,4R,6aR,6bS,8aS,14bR)-8a-((4-Chlorobutoxy)carbonyl)-3-hydroxy-4,6a,6b,11,11,14b-hexamethyl-1,2,3,4,4a,5,6,6a,6b,7,8,8a,9,10,11,12,12a,14,14a,14b-icosahydropicen-4-yl)methyl 5,6-dimethylpyrazine-2-carboxylate] displayed a melting point of 123.6 °C. The IC50 in series [1] is greater than 30 µM. Besides, the IC50 in series [2] came out at 15.6 ± 1.41 µM. The IC50 in series [3] worked out at 6.42 ± 0.24 µM. For the same compound, in series [4], the IC50 is greater than 30 µM. In series [5], the IC50 was greater than 30 µM.

As to `Cc1nc(C)c(C(=O)OC[C@@]2(C)C3CC[C@]4(C)C(CC=C5C6CC(C)(C)CC[C@]6(C(=O)OCCCCCl)CC[C@]54C)[C@@]3(C)CC[C@@H]2O)nc1C` (stereo partly drawn) [Compound 26, ((3S,4R,6aR,6bS,8aS,14bR)-8a-((4-Chlorobutoxy)carbonyl)-3-hydroxy-4,6a,6b,11,11,14b-hexamethyl-1,2,3,4,4a,5,6,6a,6b,7,8,8a,9,10,11,12,12a,14,14a,14b-icosahydropicen-4-yl)methyl 3,5,6-trimethylpyrazine-2-carboxylate], the melting point was 168.1 °C. Further, the IC50 in series [1] is greater than 30 µM. Besides, the IC50 in series [2] came to 18.3 ± 1.16 µM. Further, in series [3], the IC50 came out at 7.15 ± 0.85 µM. Besides, the IC50 in series [4] was greater than 30 µM. For the same compound, the IC50 in series [5] was greater than 30 µM.
